Experimental data from patent US20220257774A1, “AROMATIC AMINE AR AHD BET TARGETING PROTEIN DEGRADATION CHIMERA COMPOUND AND USE” (HINOVA PHARMACEUTICALS INC., priority 2019, published 2022).
pIC50: −log10 of the molar value. Where two headings read alike, the source gives them in different places.

System: LNCaP/AR cells
Assay: Inhibition of the proliferation of LNCap/AR cells (CCK-8)
Type: cell-based
Conditions: read-out: LNCap/AR IC50
Excerpt: 1. Biological Assay of the Inhibition on the Proliferation of LNCap/AR Cells
(1) Experimental materials and instruments: LNCaP/AR cell line and 22RV1 cell line (provided by Sichuan Kangcheng Biotechnology Co., Ltd.) Fetal bovine serum FBS (Gibco, Cat. No. 10099-141) 0.01M PBS (Biosharp, Cat. No. 162262) RIPM1640 medium (Hyclone, Cat. No. 308090.01) Penicillin-Streptomycin (Hyclone, Cat. No. SV30010) Cell counting kit-8 (Signalway Antibody, Cat. No. CP002) DMSO (Sigma, Cat. No. D5879) Centrifuge Tube, 15 ml (Excell Bio, Cat. No. CS015-0001) Cell Culture Dish, (Excell Bio, Cat. No. CS016-0128) 96-well cell culture plate (Corning, Cat. No. 3599) Microplate reader (Thermo Multiskan MK3 type)
(2) Experimental Methods:
a. Preparation of Buffer Cell culture medium: RIPM1640 medium, 10% FBS, 1% Pen Strep: PBS buffer: PBS powder was dissolved in 2 L of ultrapure water and sterilized. b. Experimental Procedures 1) LNCaP/AR cells were subcultured in cell culture media, and then the cells in good growth condition were seeded in a 96-well plate at 80 μL/well (1000 cells/well), and cultured overnight in a 37° C., 5% CO2 cell incubator. 2) The drug was prepared into a 10 mM stock solution with dimethyl sulfoxide (DMSO). Prior to use, the stock solution was diluted in a ratio of […] with DMSO, and then diluted at a 3-fold gradient to obtain 9 serial concentrations. Then, each concentration of compound was further diluted in a ratio of 1:200 with the culture medium (to ensure that the DMSO concentration in the culture system was 0.1%), and two wells were set for each concentration. 20 μL of the diluted compound solution was added to the well of the cell culture (with a final concentration of 10 μM, 3.3 μM, 1.1 μM . . . ), and then the plate was gently tapped to thoroughly mix. In addition, the experiment included 3 negative control wells only containing cells and 3 blank control wells only containing culture medium (6 wells were each added with DMSO diluted in a ratio of 1:200 with 20 μL of culture medium). c. Result Detection: 1) After culturing for 6 days, 10 μL of CCK-8 was added to each well, and the plate was further incubated for 1 h in a 37° C., 5% CO2 cell incubator. 2) The absorbance (OD value) was measured at 450 nm with a multifunctional microplate reader. 3) The data was analyzed by the Dose-response-inhibition equation in the software GraphPad Prism5, and the IC50 value was obtained. 2. Biological assay of the inhibition on the proliferation of other drug-resistant prostate cancer cells

[1] = 144 h, LNCaP/AR cells, 6 days culture, CCK-8

SMILES	pIC50 [1]	other results
CC(=O)O[C@@H]1C[C@@H](C(=O)N[C@@H](C)c2ccc(-c3scnc3C)cc2)N(C(=O)[C@@H](NC(=O)COCCCCCN(c2ccc(-n3ccnn3)c(Br)c2)c2cc(-c3c(C)noc3C)ccc2C)C(C)(C)C)C1 [Compound 20, (3R,5S)-1-((S)-2-(2-((5-((3-bromo-4-(1H-1,2,3-triazol-1-yl)phenyl)(5-(3,5-dimethylisoxazol-4-yl)-2-methylphenyl)amino)pentyl)oxy)acetamido)-3,3-dimethylbutyryl)-5-((S)-1-(4-methylthiazol-5-yl)phenyl)ethyl)carbamoyl)pyrrolidine-3-yl acetate]	> 7.00	
Cc1ccc(-c2c(C)noc2C)cc1N(CCCCCOCC(=O)N[C@H](C(=O)N1C[C@H](O)C[C@H]1C(=O)N[C@@H](C)c1ccc(-c2scnc2C)cc1)C(C)(C)C)c1ccc(-n2ccnc2)c(C(F)(F)F)c1 [Compound 21, (2S,4R)-1-((S)-2-(2-((5-((4-(1H-imidazol-1-yl)-3-(trifluoromethyl)phenyl)(5-(3,5-dimethylisoxazol-4-yl)-2-methylphenyl)amino)pentyl)oxy)acetamido)-3,3-dimethylbutyryl)-4-hydroxy-N—((S)-1-(4-(4-methylthiazol-5-yl)phenyl)ethyl)pyrrolidine-2-carboxamide]		pIC50 (LNCaP/AR, 144 h): 5.70 to 6.30
CC(=O)O[C@@H]1C[C@@H](C(=O)N[C@@H](C)c2ccc(-c3scnc3C)cc2)N(C(=O)[C@@H](NC(=O)COCCCCCN(c2ccc(-n3ccnc3)c(C(F)(F)F)c2)c2cc(-c3c(C)noc3C)ccc2C)C(C)(C)C)C1 [Compound 22, (3R,5S)-1-((S)-2-(2-((5-((4-(1H-imidazol-1-yl)-3-(trifluoromethyl)phenyl)(5-(3,5-dimethylisoxazol-4-yl)2-methylphenyl)amino)pentyl)oxy)acetamido)-3,3-dimethylbutyryl)-5-((S)-1-(4-methylthiazol-5-yl)phenyl)ethyl)carbamoyl)pyrrolidine-3-yl acetate]	5.70 to 6.30	
CC(=O)O[C@@H]1C[C@@H](C(=O)N[C@@H](C)c2ccc(-c3scnc3C)cc2)N(C(=O)[C@@H](NC(=O)CN2CCC(CCN(c3ccc(-n4ccnc4)c(Br)c3)c3cc(-c4c(C)noc4C)ccc3C)CC2)C(C)(C)C)C1 [Compound 23, (3R,5S)-1-((S)-2-(2-(4-(2-((3-Bromo-4-(1H-imidazol-1-yl)phenyl)(5-(3,5-dimethylisoxazol-4-yl)-2-methylphenyl)amino)ethyl)piperidin-1-yl)acetamido)-3,3-dimethylbutanol)-5-((S)-1-(4-methylthiazol-5-yl)phenyl)ethyl)carbamoyl)pyrrolidine-3-yl acetate]		pIC50 (LNCaP/AR cells, 6 days culture, CCK-8): < 5.70
Cc1ccc(-c2c(C)noc2C)cc1N(CCC1CCN(CC(=O)N[C@H](C(=O)N2C[C@H](O)C[C@H]2C(=O)N[C@@H](C)c2ccc(-c3scnc3C)cc2)C(C)(C)C)CC1)c1ccc(-n2ccnc2)c(Br)c1 [Compound 24]	< 5.70	
Cc1ccc(-c2c(C)noc2C)cc1N(CCCCCOCC(=O)Nc1cccc2c1CN(C1CCC(=O)NC1=O)C2=O)c1ccc(-n2ccnc2)c(Br)c1 (stereo not shown) [Compound 25, 2-((5-((3-Bromo-4-(1H-imidazol-1-yl)phenyl)(5-(3,5-Dimethylisoxazol-4-yl)-2-methylphenyl)amino)pentyl)oxy)-N-(2-(2,6-dioxopiperidin-3-yl)-1-oxoisoindol-4-yl)acetamide]	< 5.70	
Cc1ccc(-c2c(C)noc2C)cc1N(CCCCCOCC(=O)N[C@H](C(=O)N1C[C@H](O)C[C@H]1C(=O)N[C@@H](C)c1ccc(-c2scnc2C)cc1)C(C)(C)C)c1ccc(Br)cc1 [Compound 26, (2S,4R)-1-((S)-2-(2-((5-((4-Bromophenyl)(5-(3,5-Dimethylisoxazol-4-yl)-2-methylphenyl)amino)pentyl)oxy)acetamido)-3,3-dimethylbutyryl)-4-hydroxy-N—((S)-1-(4-(4-methylthiazol-5-yl)phenyl)ethyl)pyrrolidine-2-formamide]	6.30 to 7.00	
